# Measurements: PMC12892976, “Alkylation-based optimization of antifungal FPPS inhibitors yields a potent, broad-spectrum lipophilic zoledronate derivative” (mBio, 2025)
# Columns and labels:
# Fusarium oxysporum [1] = assay: MIC broth microdilution (CLSI); type: cell-based; conditions: Fusarium oxysporum 07-200-3012
# Experimental: Antifungal susceptibility was determined by broth microdilution according to the CLSI guidelines described in M27-Ed4 ([16]).
# Saccharomyces cerevisiae [2] = assay: MIC/MFC broth microdilution (CLSI); type: cell-based; conditions: Saccharomyces cerevisiae S288c
# Experimental: (§1) Antifungal susceptibility was determined by broth microdilution according to the CLSI guidelines described in M27-Ed4 ([16]). […] MFC was determined by back-plating drug-treated cultures from MIC broths onto SDA plates. The MFC was defined as the lowest concentration from which no colonies could be cultured.
# Candida albicans [3] = assay: MIC/MFC broth microdilution (CLSI); type: cell-based; conditions: Candida albicans SC5314
# Experimental: as §1
# [4] = tested on: Cryptococcus deuterogattii; assay: checkerboard drug interaction (FICI, MICc); type: cell-based;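 note: simplified diagonal checkerboard screen pairing antifungal drugs with FPPS inhibitors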
# Experimental: (§2) Drug interactions between antifungals and FPPS inhibitors were investigated using a simplified checkerboard diagonal screening method ([45]). […] FICIs were determined according to the Loewe additivity model ([17]).
# Cryptococcus neoformans [5] = assay: checkerboard drug interaction (FICI, MICc); type: cell-based;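 note: antifungal plus FPPS inhibitor pairs tested against Cryptococcus neoformans by simplified diagonal checkerboard screening, FICI computed under the Loewe additivity model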
# Experimental: as §2
# Fusarium oxysporum [6] = assay: checkerboard drug interaction (FICI, MICc); type: cell-based;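 note: simplified diagonal checkerboard screen pairing antifungals with FPPS inhibitors, FICI calculated under the Loewe additivity model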
# Experimental: as §2
# Saccharomyces cerevisiae [7] = assay: checkerboard drug interaction (FICI, MICc); type: cell-based;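 note: simplified diagonal checkerboard screen pairing antifungals with FPPS inhibitors, FICI calculated under the Loewe additivity model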
# Experimental: as §2
# Candida glabrata [8] = assay: checkerboard drug interaction (FICI, MICc); type: cell-based;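 note: simplified diagonal checkerboard screen pairing antifungals with FPPS inhibitors, FICI calculated under the Loewe additivity model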
# Experimental: as §2
# Candida albicans [9] = assay: checkerboard drug interaction (FICI, MICc); type: cell-based;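 note: antifungal plus FPPS inhibitor combinations on Candida albicans tested by a simplified diagonal checkerboard screen, with FICI calculated under the Loewe additivity model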
# Experimental: as §2
# Aspergillus flavus [10] = assay: checkerboard drug interaction (FICI, MICc); type: cell-based;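 note: simplified diagonal checkerboard screen pairing azole antifungals with FPPS inhibitors, FICI calculated under the Loewe additivity model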
# Experimental: as §2
# Aspergillus fumigatus [11] = assay: checkerboard drug interaction (FICI, MICc); type: cell-based;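 note: simplified diagonal checkerboard screen pairing antifungals with FPPS inhibitors against Aspergillus fumigatus, with FICI calculated under the Loewe additivity model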
# Experimental: as §2
# Trichophyton rubrum [12] = assay: checkerboard drug interaction (FICI, MICc); type: cell-based
# Experimental: as §2
# [13] = tested on: Cryptococcus deuterogattii; assay: MIC/MFC broth microdilution (CLSI); conditions: for MIC / MEC: Cryptococcus deuterogattii R265;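 for all read-outs here: broth microdilution per CLSI M27-Ed4. MFC is the lowest concentration yielding no colonies when MIC broths are subcultured onto SDA plates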
# Experimental: as §1
# Cryptococcus neoformans [14] = assay: MIC/MFC broth microdilution (CLSI); conditions: for MIC / MEC: Cryptococcus neoformans H99;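 for all read-outs here: susceptibility testing followed the CLSI M27-Ed4 broth microdilution document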
# Experimental: as §1
# Candida glabrata [15] = assay: MIC/MFC broth microdilution (CLSI); conditions: for MIC / MEC: Candida glabrata CBS138 (ATCC 2001);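 for all read-outs here: broth microdilution following CLSI M27-Ed4, MFC taken as the lowest drug level yielding no growth once MIC wells were subcultured on SDA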
# Experimental: as §1
# Aspergillus flavus [16] = assay: MIC/MFC broth microdilution (CLSI); conditions: ATCC204304
# Experimental: as §1
# Aspergillus fumigatus [17] = assay: MIC/MFC broth microdilution (CLSI); conditions: ATCC204305
# Experimental: as §1
# Trichophyton rubrum [18] = assay: MIC/MFC broth microdilution (CLSI); conditions: for MIC / MEC: Trichophyton rubrum R-218
# Experimental: as §1
# eight fungal species = assay: MIC/MFC summary across the eight fungal species of Table 1; type: cell-based
# Experimental: The antifungal activity of these compounds was evaluated according to CLSI guidelines ([16]).
structure (smiles),measurement,setting,value
"C[C@@H]1[C@H](O)[C@@H](C)/C=C/C=C/C=C/C=C/C=C/C=C/C=C/[C@H](O[C@@H]2O[C@H](C)[C@@H](O)[C@H](N)[C@@H]2O)C[C@@H]2O[C@](O)(C[C@@H](O)C[C@@H](O)[C@H](O)CC[C@@H](O)C[C@@H](O)CC(=O)O[C@H]1C)C[C@H](O)[C@H]2C(=O)O [AMB, amphotericin B]",MIC / MEC,Fusarium oxysporum [1],1 µg/mL
same,MIC / MEC,Saccharomyces cerevisiae [2],0.25 µg/mL
same,MIC / MEC,Candida albicans [3],0.25 µg/mL
same,antifungal MICc,[4]; in combination with 10-ZOL,0.25
same,antifungal MICc,[4]; in combination with ZOL,0.25
same,antifungal MICc,Cryptococcus neoformans [5]; in combination with 10-ZOL,0.5
same,antifungal MICc,Cryptococcus neoformans [5]; in combination with ZOL,0.5
same,antifungal MICc,Fusarium oxysporum [6]; in combination with 10-ZOL,1
same,antifungal MICc,Fusarium oxysporum [6]; in combination with ZOL,0.5
same,antifungal MICc,Saccharomyces cerevisiae [7]; in combination with 10-ZOL,0.25
same,antifungal MICc,Saccharomyces cerevisiae [7]; in combination with ZOL,0.5
same,antifungal MICc,Candida glabrata [8]; in combination with 10-ZOL,0.5
same,antifungal MICc,Candida glabrata [8]; in combination with ZOL,0.125
same,antifungal MICc,Candida albicans [9]; in combination with 10-ZOL,0.25
same,antifungal MICc,Candida albicans [9]; in combination with ZOL,0.25
same,antifungal MICc,Aspergillus flavus [10]; in combination with 10-ZOL,0.5
same,antifungal MICc,Aspergillus flavus [10]; in combination with ZOL,0.25
same,antifungal MICc,Aspergillus fumigatus [11]; in combination with 10-ZOL,0.125
same,antifungal MICc,Aspergillus fumigatus [11]; in combination with ZOL,0.25
same,antifungal MICc,Trichophyton rubrum [12]; in combination with 10-ZOL,0.5
same,antifungal MICc,Trichophyton rubrum [12]; in combination with ZOL,2
same,MIC / MEC,[13],0.25 µg/mL
same,MIC / MEC,Cryptococcus neoformans [14],0.25 µg/mL
same,MIC / MEC,Candida glabrata [15],0.25 µg/mL
same,MIC / MEC,Aspergillus flavus [16],0.5 µg/mL
same,MIC / MEC,Aspergillus fumigatus [17],0.25 µg/mL
same,MIC / MEC,Trichophyton rubrum [18],1 µg/mL
"CCC(C)n1ncn(-c2ccc(N3CCN(c4ccc(OCC5COC(Cn6cncn6)(c6ccc(Cl)cc6Cl)O5)cc4)CC3)cc2)c1=O (stereo not drawn) [ITR, itraconazole]",MIC / MEC,Fusarium oxysporum [1],4 µg/mL
same,MFC,Saccharomyces cerevisiae [2],1 µg/mL
same,MIC,Saccharomyces cerevisiae [2],0.25 µg/mL
same,MIC / MEC,Saccharomyces cerevisiae [2],0.25 µg/mL
same,MFC,Candida albicans [3],2 µg/mL
same,MIC,Candida albicans [3],0.25 µg/mL
same,MIC / MEC,Candida albicans [3],0.25 µg/mL
same,antifungal MICc,[4]; in combination with 10-ZOL,0.125
same,antifungal MICc,[4]; in combination with ZOL,0.25
same,antifungal MICc,Cryptococcus neoformans [5]; in combination with 10-ZOL,0.063
same,antifungal MICc,Cryptococcus neoformans [5]; in combination with ZOL,0.125
same,antifungal MICc,Fusarium oxysporum [6]; in combination with 10-ZOL,1
same,antifungal MICc,Fusarium oxysporum [6]; in combination with ZOL,1
same,antifungal MICc,Saccharomyces cerevisiae [7]; in combination with 10-ZOL,0.125
same,antifungal MICc,Saccharomyces cerevisiae [7]; in combination with ZOL,0.063
same,antifungal MICc,Candida glabrata [8]; in combination with 10-ZOL,0.031
same,antifungal MICc,Candida glabrata [8]; in combination with ZOL,0.016
same,antifungal MICc,Candida albicans [9]; in combination with 10-ZOL,0.25
same,antifungal MICc,Candida albicans [9]; in combination with ZOL,0.25
same,antifungal MICc,Aspergillus flavus [10]; in combination with 10-ZOL,0.5
same,antifungal MICc,Aspergillus flavus [10]; in combination with ZOL,0.5
same,antifungal MICc,Aspergillus fumigatus [11]; in combination with 10-ZOL,0.063
same,antifungal MICc,Aspergillus fumigatus [11]; in combination with ZOL,0.063
same,antifungal MICc,Trichophyton rubrum [12]; in combination with 10-ZOL,1
same,antifungal MICc,Trichophyton rubrum [12]; in combination with ZOL,2
same,MFC,"eight fungal species; across eight species, read-out: Geometric mean MFC",3.7 µg/mL
same,MIC,eight fungal species; read-out: Geometric mean MIC,0.5 µg/mL
same,MFC,[13]; Cryptococcus deuterogattii,4 µg/mL
same,MIC,[13]; Cryptococcus deuterogattii,1 µg/mL
same,MIC / MEC,[13],1 µg/mL
same,MFC,Cryptococcus neoformans [14]; Cryptococcus neoformans,4 µg/mL
same,MIC,Cryptococcus neoformans [14]; Cryptococcus neoformans,0.5 µg/mL
same,MIC / MEC,Cryptococcus neoformans [14],0.5 µg/mL
same,MIC / MEC,Candida glabrata [15],0.13 µg/mL
same,MFC,"Candida glabrata [15]; Nakaseomyces glabratus, CBS138",4 µg/mL
same,MIC,"Candida glabrata [15]; Nakaseomyces glabratus, CBS138",0.125 µg/mL
same,MFC,Aspergillus flavus [16],2 µg/mL
same,MIC,Aspergillus flavus [16],0.5 µg/mL
same,MIC / MEC,Aspergillus flavus [16],0.5 µg/mL
same,MFC,Aspergillus fumigatus [17],4 µg/mL
same,MIC,Aspergillus fumigatus [17],0.125 µg/mL
same,MIC / MEC,Aspergillus fumigatus [17],0.13 µg/mL
same,MFC,Trichophyton rubrum [18]; Trichophyton rubrum,> 16 µg/mL
same,MIC,Trichophyton rubrum [18]; Trichophyton rubrum,8 µg/mL
same,MIC / MEC,Trichophyton rubrum [18],8 µg/mL
"CC[C@H](C)C[C@H](C)CCCCCCCCC(=O)N[C@H]1C[C@@H](O)[C@@H](NCCN)NC(=O)[C@@H]2[C@@H](O)CCN2C(=O)[C@H]([C@H](O)CCN)NC(=O)[C@H]([C@H](O)[C@@H](O)c2ccc(O)cc2)NC(=O)[C@@H]2C[C@@H](O)CN2C(=O)[C@H]([C@@H](C)O)NC1=O [CAS, caspofungin]",MIC / MEC,Fusarium oxysporum [1],>16 µg/mL
same,MIC / MEC,Saccharomyces cerevisiae [2],0.5 µg/mL
same,MIC / MEC,Candida albicans [3],0.13 µg/mL
same,antifungal MICc,[4]; in combination with 10-ZOL,4
same,antifungal MICc,[4]; in combination with ZOL,16
same,antifungal MICc,Cryptococcus neoformans [5]; in combination with 10-ZOL,2
same,antifungal MICc,Cryptococcus neoformans [5]; in combination with ZOL,16
same,antifungal MICc,Fusarium oxysporum [6]; in combination with 10-ZOL,128
same,antifungal MICc,Fusarium oxysporum [6]; in combination with ZOL,64
same,antifungal MICc,Saccharomyces cerevisiae [7]; in combination with 10-ZOL,0.125
same,antifungal MICc,Saccharomyces cerevisiae [7]; in combination with ZOL,0.5
same,antifungal MICc,Candida glabrata [8]; in combination with 10-ZOL,0.125
same,antifungal MICc,Candida glabrata [8]; in combination with ZOL,0.25
same,antifungal MICc,Candida albicans [9]; in combination with 10-ZOL,0.063
same,antifungal MICc,Candida albicans [9]; in combination with ZOL,0.25
same,antifungal MICc,Aspergillus flavus [10]; in combination with 10-ZOL,2
same,antifungal MICc,Aspergillus flavus [10]; in combination with ZOL,4
same,antifungal MICc,Aspergillus fumigatus [11]; in combination with 10-ZOL,8
same,antifungal MICc,Aspergillus fumigatus [11]; in combination with ZOL,8
same,antifungal MICc,Trichophyton rubrum [12]; in combination with 10-ZOL,0.25
same,antifungal MICc,Trichophyton rubrum [12]; in combination with ZOL,0.063
same,MIC / MEC,[13],16 µg/mL
same,MIC / MEC,Cryptococcus neoformans [14],8 µg/mL
same,MIC / MEC,Candida glabrata [15],0.13 µg/mL
same,MIC / MEC,Aspergillus flavus [16],8 µg/mL
same,MIC / MEC,Aspergillus fumigatus [17],16 µg/mL
same,MIC / MEC,Trichophyton rubrum [18],0.25 µg/mL
